pIC50, pKi: −log10 of the molar value. One block for each compound: values may come before it.
Experiments:
[1] = molecular target: T1, Sphingomyelin phosphodiesterase 2 (Rattus norvegicus) (UniProt Q9ET64); test: Inhibition of rat brain microsomes nSMase at 200 uM measured after 90 mins relative to control; conditions: Microsome
T1 sequence (whole entry): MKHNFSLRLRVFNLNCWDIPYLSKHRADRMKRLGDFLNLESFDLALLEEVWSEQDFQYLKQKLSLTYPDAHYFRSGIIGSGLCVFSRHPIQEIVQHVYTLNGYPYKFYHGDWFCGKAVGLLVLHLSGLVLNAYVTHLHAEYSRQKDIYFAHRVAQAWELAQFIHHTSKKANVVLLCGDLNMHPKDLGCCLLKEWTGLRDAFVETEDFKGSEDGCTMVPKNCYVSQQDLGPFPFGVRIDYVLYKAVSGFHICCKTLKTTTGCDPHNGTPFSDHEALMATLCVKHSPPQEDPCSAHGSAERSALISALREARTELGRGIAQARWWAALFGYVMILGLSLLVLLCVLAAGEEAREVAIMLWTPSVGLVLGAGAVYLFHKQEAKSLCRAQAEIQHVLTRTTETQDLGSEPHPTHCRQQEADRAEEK

[2] = tested on: Neutral sphingomyelinase (Sus scrofa); test: Inhibition of pig liver plasma membranes nSMase at 100 uM measured after 15 mins at 100 uM relative to control; conditions: Plasma membrane
Sphingomyelinase C = molecular target: T2, Sphingomyelinase C (Bacillus cereus, UniProt P11889); test: Inhibition of Bacillus cereus SMaseC
T2 sequence (P11889 whole entry): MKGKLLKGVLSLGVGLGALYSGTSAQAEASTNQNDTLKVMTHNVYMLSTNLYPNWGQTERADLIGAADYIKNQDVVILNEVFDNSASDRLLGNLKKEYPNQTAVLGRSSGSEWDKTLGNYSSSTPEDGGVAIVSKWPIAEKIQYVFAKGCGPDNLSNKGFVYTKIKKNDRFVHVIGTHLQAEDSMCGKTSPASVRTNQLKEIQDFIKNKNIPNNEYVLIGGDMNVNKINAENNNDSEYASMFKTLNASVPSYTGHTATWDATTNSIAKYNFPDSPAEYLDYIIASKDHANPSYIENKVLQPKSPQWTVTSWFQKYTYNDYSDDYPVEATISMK

[3] = Inhibition of CerS human HCT-116 cells microsomal fraction assessed as reduction in C16 dihydroceramide synthesis by LC-MS/MS analysis; type: microsomes, Microsome
[4] = Inhibition of CerS human HCT-116 cells microsomal fraction assessed as reduction in C18 dihydroceramide synthesis by LC-MS/MS analysis; type: microsomes, Microsome
[5] = Inhibition of CerS human HCT-116 cells microsomal fraction assessed as reduction in C24 dihydroceramide synthesis by LC-MS/MS analysis; type: microsomes, Microsome
[6] = Inhibition of CerS human HCT-116 cells microsomal fraction assessed as reduction in C24:1 dihydroceramide synthesis by LC-MS/MS analysis; type: microsomes, Microsome
[7] = molecular target: T3, Sphingomyelin phosphodiesterase 2 (Mus musculus, UniProt O70572); test: Inhibition of mouse nSMase
T3 sequence (O70572 whole entry): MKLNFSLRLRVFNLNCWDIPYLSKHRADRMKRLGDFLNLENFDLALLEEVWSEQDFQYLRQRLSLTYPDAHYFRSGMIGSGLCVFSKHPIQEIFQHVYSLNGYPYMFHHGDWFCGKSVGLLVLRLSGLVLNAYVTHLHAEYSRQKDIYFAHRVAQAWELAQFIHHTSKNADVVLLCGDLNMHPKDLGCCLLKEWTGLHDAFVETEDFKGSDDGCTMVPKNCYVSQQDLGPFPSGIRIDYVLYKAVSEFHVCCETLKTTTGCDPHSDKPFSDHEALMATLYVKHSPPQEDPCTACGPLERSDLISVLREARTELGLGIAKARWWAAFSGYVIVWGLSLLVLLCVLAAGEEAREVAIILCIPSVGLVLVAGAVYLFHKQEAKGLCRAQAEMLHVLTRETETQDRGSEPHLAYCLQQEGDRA

[8] = molecular target: T4, Sphingolipid delta(4)-desaturase DES1 (Homo sapiens, UniProt O15121); test: Inhibition of DES1 in human HGC-27 cell lysates; type: subcellular
T4 sequence (O15121 whole entry): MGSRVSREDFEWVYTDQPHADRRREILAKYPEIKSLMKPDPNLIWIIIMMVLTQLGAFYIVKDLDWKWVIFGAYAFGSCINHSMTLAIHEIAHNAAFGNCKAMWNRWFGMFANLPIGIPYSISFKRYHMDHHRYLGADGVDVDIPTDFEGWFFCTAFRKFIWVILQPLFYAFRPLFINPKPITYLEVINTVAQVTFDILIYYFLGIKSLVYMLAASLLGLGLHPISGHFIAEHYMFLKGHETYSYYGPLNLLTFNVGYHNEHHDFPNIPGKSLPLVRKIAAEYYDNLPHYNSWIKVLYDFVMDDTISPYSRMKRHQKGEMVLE

Bos taurus = species on record: Bos taurus; test: Inhibition of bovine brain microsomes nSMase measured after 60 mins relative to control; conditions: Microsome
[9] = molecular target: T1, Sphingomyelin phosphodiesterase 2 (Rattus norvegicus); test: Inhibition of rat brain microsomes nSMase at 350 uM measured after 15 mins relative to control; conditions: Microsome
[10] = molecular target: T5, Ceramide synthase 1 (Homo sapiens) (UniProt P27544); test: Inhibition of CerS1 (unknown origin) at 10 uM relative to control
T5 sequence (whole entry): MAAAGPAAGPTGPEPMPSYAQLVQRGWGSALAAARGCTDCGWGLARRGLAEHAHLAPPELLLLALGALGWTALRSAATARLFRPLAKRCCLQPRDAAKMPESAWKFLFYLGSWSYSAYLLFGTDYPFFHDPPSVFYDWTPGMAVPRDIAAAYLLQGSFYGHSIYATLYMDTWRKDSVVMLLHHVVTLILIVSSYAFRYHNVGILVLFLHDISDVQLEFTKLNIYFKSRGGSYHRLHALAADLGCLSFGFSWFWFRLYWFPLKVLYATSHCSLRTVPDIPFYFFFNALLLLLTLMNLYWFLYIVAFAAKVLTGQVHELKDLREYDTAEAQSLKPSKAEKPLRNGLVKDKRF

[11] = molecular target: T6, Sphingomyelin phosphodiesterase 2 (Rattus norvegicus, UniProt Q9ET64); test: Inhibition of rat brain microsomes nSMase; set-up: species or system Microsome
T6 sequence (Q9ET64 whole entry): T1 sequence (whole entry)

[12] = molecular target: Sphingomyelin phosphodiesterase 2 (Mus musculus) (UniProt O70572); test: Inhibition of nSMase in mouse Splenocyte at 1 uM relative to control; type: cell-based
[13] = Inhibition of rat brain aSMase using HMU-PC as substrate incubated for 3 hrs by fluorescence based analysis; type: tissue-based
[14] = molecular target: T1, Sphingomyelin phosphodiesterase 2 (Rattus norvegicus); test: Inhibition of rat brain microsomes nSMase at 100 uM relative to control; conditions: Microsome
[15] = Inhibition of bovine brain microsomes nSMase; set-up: species or system Bos taurus, Microsome
[16] = Inhibition of rat brain aSMase using HMU-PC as substrate incubated for 3 hrs by fluorescence plate reader assay; type: tissue-based
[17] = Inhibition of bovine brain microsomes nSMase assessed as inhibition constant; set-up: species or system Bos taurus, Microsome

Compound: COc1c(O)c(C)c(C/C=C(\C)CC/C=C(\C)CC/C=C(\C)CC/C=C(\C)CC/C=C(\C)CC/C=C(\C)CC/C=C(\C)CC/C=C(\C)CC/C=C(\C)CCC=C(C)C)c(O)c1OC
- inhibition [2]: > 90%

Compound: CCCCCCC[C@@H](O)[C@H](CNP(=O)([O-])OCC[N+](C)(C)C)NC(=O)CCCCC
- pIC50 (Sphingomyelinase C): 4.28

Compound: CCCCCCCCCCC/C=C/CC[C@@H](O)[C@H](CO)NC(=O)CCCCCCC
- pIC50 [8]: 6.81

Compound: C/C=C/C=C/C(=O)N[C@@H](CO)[C@H]1C=C(CCCCCC)C(=O)O1
- inhibition (Bos taurus): 90%
- inhibition [9]: 50%

Compound: COS(=O)(=O)O[C@@H]1[C@H](O)[C@H](OP(=O)(O)O)[C@@H](O)[C@H](OP(=O)(O)O)[C@H]1O
- pIC50 [13]: < 4.00

Compound: CCCCCCOS(=O)(=O)O[C@@H]1[C@H](O)[C@H](OP(=O)(O)O)[C@@H](O)[C@H](OP(=O)(O)O)[C@H]1O
- pIC50 [13]: 4.37

Compound: COc1c(O)c(C)c(C/C=C(\C)CC/C=C(\C)CC/C=C(\C)CC/C=C(\C)CC/C=C(\C)CCC=C(C)C)c(O)c1OC
- inhibition [14]: > 90%

Compound: CCCCCCCCOS(=O)(=O)O[C@@H]1[C@H](O)[C@H](OP(=O)(O)O)[C@@H](O)[C@H](OP(=O)(O)O)[C@H]1O
- pIC50 [13]: 5.40

Compound: CCCCCCCC(N)(P(=O)(O)O)P(=O)(O)O
- pIC50 [16]: 7.40

Compound: CCCCCCCCCC(N)(P(=O)(O)O)P(=O)(O)O
- pIC50 [16]: 7.70

Now from value to compound:

- inhibition [1]: 80%
Compound: CCCCCCCCCC(=O)N[C@H](CO)C(=O)NC1=CC2(CO2)C(=O)C=C1 (stereo not given in full)

- pIC50 [3]: 4.30
- pIC50 [4]: 4.57
- pIC50 [5]: 4.09
- pIC50 [6]: 4.21
Compound: CCCCCCCOc1ccc(CCC(CO)(CO)NC(=O)CCCc2ccccc2)cc1

- pIC50 [7]: 6.07
Compound: CCOc1ccc(OCC)c(NC(=O)C2=C(C)NC(=S)NC2c2ccc(N(CC)CC)cc2)c1 (stereo not given)

- pIC50 [4]: 4.67
- pIC50 [6]: 4.54
Compound: CCCCCCCOc1ccc(CCC(CO)(CO)N(C)C)cc1

- inhibition [10]: 76%
Compound: C[C@@](N)(CO)CCc1ccc(OCc2ccccc2)cc1

- pIC50 [11]: 5.30
Compound: N=C(N)N/N=C/c1cc2ccccc2[nH]1

- inhibition [12]: 80%
Compound: N=C(N)N/N=C/c1ccc(Oc2cccc(OCc3ccccc3)c2)cc1

- inhibition [1]: 23%
Compound: CCCCCCCCCC(=O)N[C@H](Cc1ccccc1)C(=O)NC1=CC2(CO2)C(=O)C=C1 (stereo not given in full)

- inhibition [10]: 16%
Compound: CCCCOc1ccc(CC[C@](C)(N)CO)cc1

- pIC50 [15]: 3.74
Compound: CCCCCCCCCCCCCCCC(=O)N[C@@H](CC(F)(F)P(=O)(O)O)[C@H](O)c1ccccc1

- pIC50 [3]: 4.59
- pIC50 [4]: 4.29
- pIC50 [5]: 4.22
Compound: CCCCCCCCc1ccc(CCC(CO)(CO)NCC)cc1

- pKi [17]: 5.77
Compound: CCCCCCCCCCCCNC(=S)N[C@H](CO)[C@H](O)c1ccc([N+](=O)[O-])cc1

- pIC50 [11]: 4.47
Compound: CC(C)(O)C(O)Cc1cc(O)ccc1O (stereo not given)
